Where two headings read alike, the source gives them in different places. Bridge positions count the residues as written; N and C are the ends. Square brackets hold non-standard residues; d marks the D form. Peptide text beside a SMILES is read from it. * marks the point of attachment. X2 = N=C(N)N1C[C@H](O)C[C@H]1C(=O)*; Gly(N-2-aminoethyl) = NCCNCC(=O)O; Hyp = O=C(O)[C@@H]1C[C@@H](O)CN1; Pen = CC(C)(S)[C@H](N)C(=O)O; dDab = NCC[C@@H](N)C(=O)O; Dab = NCC[C@H](N)C(=O)O; Nlys = NCCCCNCC(=O)O
Experiments:
[1] = tested on: human red blood cells (hRBC); assay: Hemolysis of human red blood cells; assay type: cell-based; settings: red cells of human, 1 h
Protocol: Lyophilized peptides were weighed on a Microbalance (Mettler MT5) and dissolved in sterile water to a final concentration of 1 mg/mL. Stock solutions were kept at +4° C., light protected. The peptides were tested for their hemolytic activity against human red blood cells (hRBC). Fresh hRBC were washed three times with phosphate buffered saline (PBS) and centrifuged for 5 min at 3000×g. Compounds (200 μg/mL) were incubated with 20% hRBC (v/v) for 1 h at 37° C. and shaking at 300 rpm. […] The samples were centrifuged, the supernatants were 8-fold diluted in PBS buffer and the optical densities (OD) were measured at 540 nm. […] Percent hemolysis was calculated as follows: (OD540peptide/OD540H2O)×100%.

[2] = tested on: Escherichia coli ATCC 25922; settings: ATCC 25922
Protocol: (§1) Lyophilized peptides were weighed on a Microbalance (Mettler MT5) and dissolved in sterile water to a final concentration of 1 mg/mL. Stock solutions were kept at +4° C., light protected.
(§2) Colonies of the microorganisms were diluted in saline (0.85%, NaCl) and adjusted using a McFarland reader (bioMérieux SA, Marcy-l'Etoile, France) to 0.5 McFarland standard. Subsequently, the bacterial suspension was diluted in Mueller-Hinton II (MHII, cation adjusted) broth to give approximately 5×10^5 colony forming units (CFU/mL).
(§3) 10^6 colony forming units (CFU)/mL. Aliquots (90 μl) of inoculate were added to 10 μl of water+P-80 (Polysorbate 80, 0.002% final concentration) containing the peptide in serial two-fold dilutions at 10 fold final concentration. The following microorganisms were used to determine antibiotic selectivity of the peptides: Escherichia coli ATCC 25922, Escherichia coli MCR-1 Af 45 and Klebsiella pneumoniae SSI3010.

[3] = tested on: Escherichia coli MCR-1 Af 45
Protocol: as §1, §2, §3

[4] = tested on: Klebsiella pneumoniae SSI3010; settings: SSI3010
Protocol: as §1, §2, §3

[5] = Mueller-Hinton broth II, 18-20 hours at 35° C.

| SMILES | Escherichia coli MCR-1 Af 45 MIC ([3]; MCR-1 Af 45) [µg/mL] | Hemolysis at 0.2 g/L [1] [%] | Escherichia coli ATCC 25922 MIC [2] [µg/mL] | Klebsiella pneumoniae SSI3010 MIC [4] [µg/mL] | Escherichia coli MCR-1 Af 45 MIC [3, 5] [µg/mL] |
| --- | --- | --- | --- | --- | --- |
| CC[C@H](C)[C@H](NC(=O)[C@@H]1C[C@@H](O)CN1C(=O)[C@@H](N)C(C)C)C(=O)N[C@H](C(=O)N[C@@H](Cc1ccc(O)cc1)C(=O)N[C@@H]1C(=O)N[C@@H](CN)C(=O)N[C@@H](CCCNC(=N)N)C(=O)N[C@@H](CCN)C(=O)N[C@@H]([C@@H](C)O)C(=O)N[C@H](CCN)C(=O)N[C@@H](CCCCN)C(=O)N[C@H](C(=O)N[C@@H](CCN)C(=O)N[C@@H](CCCNC(=N)N)C(=O)N[C@@H](Cc2ccc(O)cc2)C(=O)O)CSSC1(C)C)[C@@H](C)O [Example 182] (HELM PEPTIDE1{V.[Hyp].I.T.Y.[Pen].[NC[C@H](N[*:1])C(=O)[*:2]].R.[Dab].T.[NCC[C@@H](N[*:1])C(=O)[*:2]].K.C.[Dab].R.Y}$PEPTIDE1,PEPTIDE1,6:R3-13:R3$$$V2.0) | – | 0 | 0.0625 | 0.25 | 0.125 |
| CC[C@H](C)[C@H](NC(=O)[C@@H](NC(=O)[C@@H]1C[C@@H](O)CN1C(=O)[C@@H](N)C(C)C)[C@@H](C)CC)C(=O)N[C@@H](Cc1ccc(O)cc1)C(=O)N[C@H]1CC(=O)NCC[C@@H](C(=O)N[C@@H](CCN)C(=O)N[C@@H](CCCNC(=N)N)C(=O)N[C@@H](Cc2ccc(O)cc2)C(=O)O)NC(=O)[C@H](CCCCN)NC(=O)[C@@H](CCN)NC(=O)[C@H]([C@@H](C)O)NC(=O)[C@H](CCN)NC(=O)[C@H](CCCNC(=N)N)NC(=O)[C@H](CC(N)=O)NC1=O [Example 205] (HELM PEPTIDE1{V.[Hyp].I.I.Y.D.N.R.[Dab].T.[NCC[C@@H](N[*:1])C(=O)[*:2]].K.[Dab].[Dab].R.Y}$PEPTIDE1,PEPTIDE1,6:R3-13:R3$$$V2.0) | – | 0 | 0.125 | 0.25 | 0.125 |
| CC[C@H](C)[C@H](NC(=O)[C@@H]1C[C@@H](O)CN1C(=O)[C@@H](N)C(C)C)C(=O)N[C@@H](CCCNC(=N)N)C(=O)N[C@@H](Cc1ccc(O)cc1)C(=O)N[C@@H]1C(=O)N[C@@H](CC(N)=O)C(=O)N[C@@H](CCCNC(=N)N)C(=O)N[C@@H](CCN)C(=O)N[C@@H]([C@@H](C)O)C(=O)N[C@H](CCN)C(=O)N[C@@H](CCCCN)C(=O)N[C@H](C(=O)N[C@@H](CCN)C(=O)N[C@H](C(=O)N[C@@H](Cc2ccc(O)cc2)C(=O)O)[C@@H](C)O)CSSC1(C)C [Example 154] (HELM PEPTIDE1{V.[Hyp].I.R.Y.[Pen].N.R.[Dab].T.[NCC[C@@H](N[*:1])C(=O)[*:2]].K.C.[Dab].T.Y}$PEPTIDE1,PEPTIDE1,6:R3-13:R3$$$V2.0) | – | 0 | 0.25 | 0.5 | 0.25 |
| CC[C@H](C)[C@H](NC(=O)[C@@H]1C[C@@H](O)CN1C(=O)[C@@H](NC)C(C)C)C(=O)N[C@H](C(=O)N[C@@H](Cc1ccc(O)cc1)C(=O)N[C@@H]1C(=O)N[C@@H](CC(N)=O)C(=O)N[C@@H](CCCNC(=N)N)C(=O)N[C@@H](CCN)C(=O)N[C@@H]([C@@H](C)O)C(=O)N[C@H](CCN)C(=O)N[C@@H](CCCCN)C(=O)N[C@H](C(=O)N[C@@H](CCN)C(=O)N[C@@H](CCCNC(=N)N)C(=O)N[C@@H](Cc2ccc(O)cc2)C(=O)O)CSSC1(C)C)[C@@H](C)O [Example 181] (HELM PEPTIDE1{[meV].[Hyp].I.T.Y.[Pen].N.R.[Dab].T.[NCC[C@@H](N[*:1])C(=O)[*:2]].K.C.[Dab].R.Y}$PEPTIDE1,PEPTIDE1,6:R3-13:R3$$$V2.0) | – | 0 | 0.125 | 0.25 | 0.125 |
| CCCC[C@H](NC(=O)[C@H](CCCNC(=N)N)NC(=O)[C@H](CCN)NC(=O)[C@@H]1CSSC(C)(C)[C@H](NC(=O)[C@H](Cc2ccc(O)cc2)NC(=O)[C@@H](NC(=O)[C@@H](NC(=O)CN(CCN)C(=O)[C@@H](NC(=O)[C@@H]2CCCN2)C(C)C)[C@@H](C)CC)[C@@H](C)CC)C(=O)N[C@@H](CC(N)=O)C(=O)N[C@@H](CCCNC(=N)N)C(=O)N[C@@H](CCN)C(=O)N[C@@H]([C@@H](C)O)C(=O)N[C@H](CCN)C(=O)N[C@@H](CCCCN)C(=O)N1)C(=O)O [Example 7, Pro-Val-Ndab-Ile-Ile-Tyr-Pen-Asn-Arg-Dab-Thr-^DDab-Lys-Cys-Dab-Arg-Nle] (HELM PEPTIDE1{P.V.[NCCN(CC(=O)[*:2])[*:1]].I.I.Y.[Pen].N.R.[Dab].T.[NCC[C@@H](N[*:1])C(=O)[*:2]].K.C.[Dab].R.[Nle]}$PEPTIDE1,PEPTIDE1,7:R3-14:R3$$$V2.0) | 0.25 | 0 | 0.125 | 0.25 | – |

The next lines start with results.

| Escherichia coli MCR-1 Af 45 MIC ([3]; MCR-1 Af 45) [µg/mL] | SMILES | Hemolysis at 0.2 g/L [1] [%] | Escherichia coli ATCC 25922 MIC [2] [µg/mL] | Klebsiella pneumoniae SSI3010 MIC [4] [µg/mL] | Escherichia coli MCR-1 Af 45 MIC [3, 5] [µg/mL] |
| --- | --- | --- | --- | --- | --- |
| 0.125 | CC[C@H](C)[C@H](NC(=O)CN(CCN)C(=O)[C@@H](NC(=O)[C@@H]1C[C@@H](O)CN1C(=O)CNCCCCN)C(C)C)C(=O)N[C@H](C(=O)N[C@@H](Cc1ccc(O)cc1)C(=O)N[C@@H]1C(=O)N[C@@H](CC(N)=O)C(=O)N[C@@H](CCCNC(=N)N)C(=O)N[C@@H](CCN)C(=O)N[C@@H]([C@@H](C)O)C(=O)N[C@H](CCN)C(=O)N[C@@H](CCCCN)C(=O)N[C@H](C(=O)N[C@@H](CCN)C(=O)N[C@@H](CCCNC(=N)N)C(=O)N[C@@H](Cc2ccc(O)cc2)C(=O)O)CSSC1(C)C)[C@@H](C)O [Example 49, Nlys-Hyp-Val-Ndab-Ile-Thr-Tyr-Pen-Asn-Arg-Dab-Thr-^DDab-Lys-Cys-Dab-Arg-Tyr] (H-[Nlys][Hyp]V[Gly(N-2-aminoethyl)]ITY[Pen]NR[Dab]T[dDab]KC[Dab]RY-OH; disulfide 8-15; N-terminus and C-terminus assumed) | 0 | 0.125 | 0.25 | – |
| 0.0625 | CC[C@H](C)[C@H](NC(=O)CN(CCN)C(=O)[C@@H](NC(=O)[C@@H]1C[C@@H](O)CN1C(=N)N)C(C)C)C(=O)N[C@H](C(=O)N[C@@H](Cc1ccc(O)cc1)C(=O)N[C@@H]1C(=O)N[C@@H](CC(N)=O)C(=O)N[C@@H](CCCNC(=N)N)C(=O)N[C@@H](CCN)C(=O)N[C@@H]([C@@H](C)O)C(=O)N[C@H](CCN)C(=O)N[C@@H](CCCCN)C(=O)N[C@H](C(=O)N[C@@H](CCN)C(=O)N[C@@H](CCCNC(=N)N)C(=O)N[C@@H](Cc2ccc(O)cc2)C(=O)O)CSSC1(C)C)[C@@H](C)O [Example 37, Gua-Hyp-Val-Ndab-Ile-Thr-Tyr-Pen-Asn-Arg-Dab-Thr-^DDab-Lys-Cys-Dab-Arg-Tyr] (X2-V[Gly(N-2-aminoethyl)]ITY[Pen]NR[Dab]T[dDab]KC[Dab]RY-OH; disulfide 6-13) | 0 | 0.25 | 0.25 | – |
| 0.0625 | CCCC[C@H](NC(=O)[C@H](CCCNC(=N)N)NC(=O)[C@H](CCN)NC(=O)[C@@H]1CSSC[C@H](NC(=O)[C@H](Cc2ccc(O)cc2)NC(=O)[C@H](CCCNC(=N)N)NC(=O)[C@@H](NC(=O)[C@@H]2CCCN2C(=O)[C@@H](NC(=O)[C@@H]2CCCN2C(=O)[C@H](CCCNC(=N)N)NC(=O)[C@@H](N)CCCCN)C(C)C)[C@@H](C)CC)C(=O)N[C@@H](CC(N)=O)C(=O)N[C@@H](CCCNC(=N)N)C(=O)N[C@@H](CCCNC(=N)N)C(=O)N[C@@H]([C@@H](C)O)C(=O)N[C@H](CCN)C(=O)N[C@@H](CCCCN)C(=O)N1)C(=O)O [Example 75] (HELM PEPTIDE1{K.R.P.V.P.I.R.Y.C.N.R.R.T.[NCC[C@@H](N[*:1])C(=O)[*:2]].K.C.[Dab].R.[Nle]}$PEPTIDE1,PEPTIDE1,9:R3-16:R3$$$V2.0) | 0 | ≤0.0625 | 0.0625 | – |

Reference: patent US20230295234A1, “ANTIMICROBIAL PEPTIDOMIMETICS” (SPEXIS AG, priority 2020, published 2023)
